The values below are quoted from earlier work in patent US20110243859A1, “ENCAPSULATING SYSTEM FOR CEST IMAGING WITH CHELATE Q GREATER THAN OR EQUAL TO 2” (GUERBET, priority 2008, published 2011).

The conditions of data set [1]: monomeric chelate.
For data set [2] the following is noted: spherical liposome, maximum accessible concentration inside.

Regarding `CC1(N(CC(=O)O)CC(=O)O)CN(CC(=O)O)CCN(CC(=O)O)C1` [AAZTA], the Value q in data set [1] is 2.

With `O=C(O)CN1CCNCCN(CC(=O)O)CCNCC1` [DO2A], the Value q in data set [1] is given as 3.

Consider `O=C(O)CN1CCNCCN(CC(=O)O)CCN(CC(=O)O)CC1` [DO3A], for which the Value q in data set [1] is recorded as 2.

As for `CC(C(=O)O)N1CCNCCN(C(C)C(=O)O)CCN(C(C)C(=O)O)CC1` (stereo not drawn) [DO3MA], the Value q in data set [1] is on record as 2.

`O=C(O)CN1CCN(CC(=O)O)CCN(CC(=O)O)CCN(CC(=O)O)CC1` [DOTA]: the Value q in data set [1] is 1.

Turning to `CC(O)CN1CCN(CC(=O)[O-])CCN(CC(=O)[O-])CCN(CC(=O)[O-])CC1.[Tm+3]` (stereo not drawn) [HP-DO3A-Tm], in data set [2], the Delta shift value was 3.5 ppm.

In the case of `CC(O)CN1CCN(CC(=O)O)CCN(CC(=O)O)CCN(CC(=O)O)CC1` (stereo not drawn) [HP-DO3A], the Value q in data set [1] is given as 1.

As for `CC(CN(CC(=O)O)CC(=O)O)N(CC(=O)O)CC(=O)O` (stereo not drawn) [MeDTA], in data set [1], the Value q was 2.

With `CC(C(=O)O)N1CCN(C(C)C(=O)O)CCN(C(C)C(=O)O)CC1` (stereo not drawn) [NOTMA], the Value q in data set [1] is reported as 2.

`O=C(O)CN1CCN(CC(=O)O)Cc2cccc(n2)CN(CC(=O)O)CC1` [PCTA]: in data set [1], the Value q was 2.

Regarding `NC1C(O)C(N)C(O)C(N)C1O` (stereo not drawn) [Taci], the Value q in data set [1] is 2.

On to texaphyrin [Tx], for which the Value q in data set [1] was 3.5.
